Reference: patent US20170190671A1, “BIS(ARYL)CATECHOL DERIVATIVES AS HERBICIDES” (E I DU PONT DE NEMOURS AND COMPANY, priority 2014, published 2017)

Experiments:
Assay in all cases: Test C postemergence
Format in all cases: in vivo
[1] = system: Italian ryegrass (Lolium multiflorum); conditions: Lolium multiflorum, post-emergence, 336 h, Postemergence, scale 0 to 100, read-out: Plant response rating, Ryegrass, Italian
Method in brief: (§1)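 Visual ratings were made 13-15 days after treatment in the greenhouse, scored 0-100 against controls, where 100 means complete control. Treatments used a surfactant-containing non-phytotoxic solvent formulation, applied preemergence to seeds in loam-sand soil or postemergence to 2-18 cm plants (1-4 leaves) in peat-based medium.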

[2] = system: barnyardgrass (Echinochloa crus-galli); conditions: Echinochloa crus-galli, post-emergence, Postemergence, scale 0 to 100, read-out: Plant response rating, Barnyardgrass
Method in brief: as §1

[3] = system: blackgrass (Alopecurus myosuroides); conditions: Alopecurus myosuroides, post-emergence, 336 h, Postemergence, scale 0 to 100, read-out: Plant response rating, Blackgrass
Method in brief: as §1

[4] = system: corn (Zea mays); conditions: Zea mays, post-emergence, 336 h, Postemergence, scale 0 to 100
Method in brief: as §1

[5] = system: giant foxtail (Setaria faberii); conditions: Setaria faberi, post-emergence, 336 h, Postemergence, scale 0 to 100, read-out: Plant response rating, Foxtail, Giant
Method in brief: as §1

[6] = system: johnsongrass (Sorghum halepense); conditions: Sorghum halepense, post-emergence, 336 h, Postemergence, scale 0 to 100, read-out: Plant response rating, Johnsongrass
Method in brief: as §1

[7] = system: lambsquarters (Chenopodium album); conditions: Chenopodium album, post-emergence, 336 h, Postemergence, scale 0 to 100, read-out: Plant response rating, Lambsquarters
Method in brief: as §1

[8] = system: large (Lg) crabgrass (Digitaria sanguinalis); conditions: Digitaria sanguinalis, post-emergence, 336 h, Postemergence, scale 0 to 100, read-out: Plant response rating, Crabgrass, Large
Method in brief: as §1

[9] = system: morningglory (Ipomoea coccinea); conditions: Ipomoea, post-emergence, 336 h, Postemergence, scale 0 to 100, read-out: Plant response rating, Morningglory
Method in brief: as §1

[10] = system: oilseed rape (Brassica napus); conditions: Brassica napus, post-emergence, Postemergence, scale 0 to 100, read-out: Plant response rating, Oilseed Rape
Method in brief: as §1

[11] = system: ragweed (common ragweed, Ambrosia elatior); conditions: Ambrosia artemisiifolia, post-emergence, 336 h, Postemergence, scale 0 to 100, read-out: Plant response rating, Ragweed
Method in brief: as §1

[12] = system: soybean (Glycine max); conditions: Glycine max, post-emergence, Postemergence, scale 0 to 100, read-out: Plant response rating, Soybean
Method in brief: as §1

[13] = system: velvetleaf (Abutilon theophrasti); conditions: Abutilon theophrasti, post-emergence, Postemergence, scale 0 to 100, read-out: Plant response rating, Velvetleaf
Method in brief: as §1

[14] = system: winter wheat (Triticum aestivum); conditions: Triticum aestivum, post-emergence, 336 h, Postemergence, scale 0 to 100, read-out: Plant response rating, Wheat
Method in brief: as §1

N#Cc1cccc(Oc2ncc(C(F)(F)F)cn2)c1Oc1ncc(Cl)cn1 [Compound 39, 2-[(5-chloro-2-pyrimidinyl)oxy]-3-[[5-(trifluoromethyl)-2-pyrimidinyl]oxy]-benzonitrile]
pest or weed control at 31 g/ha ([1]; 31 g ai/ha): 0% | pest or weed control at 62 g/ha ([1]; 62 g ai/ha): 5% | pest or weed control at 125 g/ha ([1]; 125 g ai/ha): 10% | pest or weed control at 16 g/ha ([2]; 16 g ai/ha): 5% | pest or weed control at 31 g/ha ([2]; 31 g ai/ha): 15% | pest or weed control at 62 g/ha ([2]; 62 g ai/ha): 15% | pest or weed control at 125 g/ha ([2]; 125 g ai/ha): 25% | pest or weed control at 16 g/ha ([3]; 16 g ai/ha): 5% | pest or weed control at 31 g/ha ([3]; 31 g ai/ha): 10% | pest or weed control at 62 g/ha ([3]; 62 g ai/ha): 15% | pest or weed control at 125 g/ha ([3]; 125 g ai/ha): 30% | Corn plant response rating (crop injury, 0 = no effect, 100 = complete kill) at 16 g/ha ([4]; 16 g ai/ha): 5% | Corn plant response rating (crop injury, 0 = no effect, 100 = complete kill) at 31 g/ha ([4]; 31 g ai/ha): 10% | Corn plant response rating (crop injury, 0 = no effect, 100 = complete kill) at 62 g/ha ([4]; 62 g ai/ha): 10% | Corn plant response rating (crop injury, 0 = no effect, 100 = complete kill) at 125 g/ha ([4]; 125 g ai/ha): 20% | pest or weed control at 16 g/ha ([5]; 16 g ai/ha): 10% | pest or weed control at 31 g/ha ([5]; 31 g ai/ha): 10% | pest or weed control at 62 g/ha ([5]; 62 g ai/ha): 10% | pest or weed control at 125 g/ha ([5]; 125 g ai/ha): 20% | pest or weed control at 16 g/ha ([6]; 16 g ai/ha): 5% | pest or weed control at 31 g/ha ([6]; 31 g ai/ha): 15% | pest or weed control at 62 g/ha ([6]; 62 g ai/ha): 10% | pest or weed control at 125 g/ha ([6]; 125 g ai/ha): 10% | pest or weed control at 16 g/ha ([7]; 16 g ai/ha): 75% | pest or weed control at 31 g/ha ([7]; 31 g ai/ha): 70% | pest or weed control at 62 g/ha ([7]; 62 g ai/ha): 80% | pest or weed control at 125 g/ha ([7]; 125 g ai/ha): 85% | pest or weed control at 16 g/ha ([8]; 16 g ai/ha): 5% | pest or weed control at 31 g/ha ([8]; 31 g ai/ha): 5% | pest or weed control at 62 g/ha ([8]; 62 g ai/ha): 10% | pest or weed control at 125 g/ha ([8]; 125 g ai/ha): 10% | pest or weed control at 31 g/ha ([9]; 31 g ai/ha): 75% | pest or weed control at 62 g/ha ([9]; 62 g ai/ha): 90% | pest or weed control at 125 g/ha ([9]; 125 g ai/ha): 85% | plant injury at 31 g/ha ([10]; 31 g ai/ha): 5% | plant injury at 62 g/ha ([10]; 62 g ai/ha): 40% | plant injury at 125 g/ha ([10]; 125 g ai/ha): 40% | pest or weed control at 31 g/ha ([11]; 31 g ai/ha): 65% | pest or weed control at 62 g/ha ([11]; 62 g ai/ha): 60% | pest or weed control at 125 g/ha ([11]; 125 g ai/ha): 85% | plant injury at 31 g/ha ([12]; 31 g ai/ha): 60% | plant injury at 62 g/ha ([12]; 62 g ai/ha): 95% | plant injury at 125 g/ha ([12]; 125 g ai/ha): 70% | pest or weed control at 31 g/ha ([13]; 31 g ai/ha): 55% | pest or weed control at 62 g/ha ([13]; 62 g ai/ha): 60% | pest or weed control at 125 g/ha ([13]; 125 g ai/ha): 60% | plant injury at 31 g/ha ([14]; 31 g ai/ha): 0% | plant injury at 62 g/ha ([14]; 62 g ai/ha): 5% | plant injury at 125 g/ha ([14]; 125 g ai/ha): 0%
